“And” between values parts separate entries of the source, which are not always exact repeats. Equal values may be shown once. Read-outs that look alike come from different tables or passages of the source.
How the values were obtained:
[1] = Reducing ability: interaction with DPPH; settings: tested at 100 µM
[2] = Inhibition of lipid peroxidation (ILPO), AAPH protocol with sodium linoleate; settings: tested at 100 µM
Protocol: The reactants consisting of 10 µL (16 mM) sodium linoleate, 10 µL of the tested nitrones in DMSO (final concentration 100 µM), 50 µL of AAPH ([…]) as a free radical initiator, 930 µL phosphate buffer pH 7.4 (0.05 M) at 37 °C under air, were mixed and the reaction’s result (as absorbance value) was recorded at 234 nm in comparison to PBN as a reference.

[3] = test system: SH-SY5Y human neuroblastoma cells; assay: Neuroprotection: cell viability (XTT metabolic activity) after OGD (4 h) followed by OGR (24 h) (IR); assay type: cell-based; settings: OGD 4 h + OGR 24 h (IR); for Emax: 24 h, read-out: Maximal Activity mean±SEM (neuroprotection); for EC50: compounds 0.01 μM to 1 mM, read-out: Neuroprotection EC50 ± SEM
Protocol: Cultures of human neuroblastoma cells from line SH-SY5Y were performed in flasks containing Dulbecco’s: Ham’s F12, 1:1 [v/v] composed of 0.5 mM sodium pyruvate, 2.5 mM GlutaMAX™; GIBCO, Life Technologies, Madrid (Spain), 3.15 mg/mL glucose, 1% Antibiotic-Antimycotic (100 ui/mL penicillin, […] streptomycin, and 0.25 mg amphotericin B), 1% Gentamicin 15 mg/mL (Sigma-Aldrich, Madrid, Spain) and 10% Fetal Calf Serum (FCS) (Gibco; Life Technologies, Madrid, Spain) as as described. For each experiment, neuroblastoma cells were digested partially with 0.25% trypsin-EDTA and seeded in plates of 96 or 48 wells with a density of 0.5–1 or 2–2.5 × 10^5 cells/well, respectively, depending on the assay. At 80% confluence of the seeded cells, medium was renewed adding 0.1–1000 µM of the compounds tested.
To induce experimental ischemia, and the sub-consequent cellular damage, the neuroblastoma cultures underwent OGD for 3–4 h, maintained in a glucose-free Dulbecco’s medium inside an anaerobic chamber in the presence of a gas mixture of 95% N2/5% CO2 and humidified at 37 °C at a constant pressure of 0.15 bar. After the OGD period (4 h), medium was substituted by oxygenated 10% FCS-containing medium, and cells were incubated in conditions of normoxia for 24 h to recovery (R24h). The compounds used in the neuroprotection studies: nitrones 9a–i, α-phenyl-N-tert-butyl nitrone (PBN) and N-acetyl-L-cysteine (NAC) (0.01 μM−1000 µM), were added at the beginning of R24h as described. Concurrently, controls in the absence of the OGD procedure were performed by maintaining these cells with Dulbecco’s medium including glucose for 3–4 h in an incubator in conditions of normoxia during the OGD period; thereafter, the medium was changed, and the cells (in the presence or absence of the different study compounds) were returned to the incubator for 24 h of recovery, as described. In addition, experiments including the same amounts of vehicle (final concentration < 1% dimethyl sulfoxide) were performed, serving as controls. The effects of nitrones 9a–g were analyzed three-five times independently using different culture batches, and each experiment was carried out in triplicate.
(§1) Cell viability measurements were carried out in human neuroblastoma cells SHSY5Y using 96-well culture plates, containing about 0.5–1 × 10^5 cells/well, after the OGD-R24h or control treatment including 0.01–1000 µM of the different testing compounds (nitrones 9a–g, PBN, and NAC), utilizing the Cell Proliferation Kit II (XTT), Sigma Aldrich, Madrid, Spain, which determines the culture’s metabolic capacity, as described in [21, 22]. XTT solution (0.3 mg/mL final concentration) was added to the seeded cells, incubated for 2 h at 37 °C with 5% CO2 and 95% air (v/v), and a spectrophotometer reader (Biotek Power-Wave XS microplate-reader (BioTek Instruments, Madrid, Spain) was used to register the absorbance at 450 nm (reference 650 nm) of the soluble formazan product generated. 100% viability was set by control normoxic cells treated with medium only, and control cells were added 0.001–1% DMSO in every assay.

[4] = test system: human neuroblastoma SH-SY5Y cells; assay: Basal neurotoxicity: cell viability under basal conditions; assay type: cell-based
Protocol: as §1

Cc1cn(C/C=[N+](/C)[O-])c(=O)[nH]c1=O [9b]
melting point: 182 °C (dec.)
DPPH (%) [1]: 11%
ILPO (%) [2]: 55%
Emax ([3]; Homo sapiens): 123 ± 8.46%
EC50 ([3]; Homo sapiens): 193 ± 36.7 µM

C/[N+]([O-])=C/Cn1cc(Br)c(=O)n(C/C=[N+](/C)[O-])c1=O [9i]
DPPH (%) [1]: 76%
ILPO (%) [2]: 71%
Emax ([3]; Homo sapiens): 110 ± 3.97%
EC50 ([3]; Homo sapiens): 23.6 ± 4.17 µM

C/[N+]([O-])=C/Cn1cnc2c(N)ncnc21 [9f]
melting point: 211 °C (dec.)
DPPH (%) [1]: 9%
EC50 ([3]; Homo sapiens): 1.55 ± 0.15 µM

CC(C)(C)[N+]([O-])=Cc1ccccc1 [PBN, α-phenyl-N-tert-butylnitrone, reference compound]
ILPO (%) [2]: 11%
Maximal Activity mean±SEM (neuroprotection) [3]: 96.93 ±6.97% and ≈ 96%
EC50 [3]: 33.5 µM and ~35 µM
Neurotoxic effects at basal level (cell viability) [4]: did not show any neurotoxic effects

C/[N+]([O-])=C/Cn1cc(Br)c(=O)[nH]c1=O [9d]
melting point: 180 °C (dec.)
DPPH (%) [1]: 6%
Emax ([3]; Homo sapiens): 125 ± 8.05%
EC50 ([3]; Homo sapiens): 29.2 ± 7.72 µM

C/[N+]([O-])=C/Cn1cc(Cl)c(=O)[nH]c1=O [9e]
melting point: 180 °C (dec.)
DPPH (%) [1]: 13%
ILPO (%) [2]: 68%
Emax ([3]; Homo sapiens): 99.7 ± 5.98%
EC50 ([3]; Homo sapiens): 165 ± 26.1 µM

From paper PMC8955307, “Nucleobase-Derived Nitrones: Synthesis and Antioxidant and Neuroprotective Activities in an In Vitro Model of Ischemia–Reperfusion” (International Journal of Molecular Sciences, 2022)
